How the values were obtained:
Assay type in all cases: cell-based, mouse
[1] = system: α7 integrin (LacZ reporter in α7βgal+/− myoblasts); test: Myoblast α7+/LacZ integrin FDG assay (Burkin assay in myoblasts, 96-well); details: α7+/LacZ myoblasts, 96-well
[2] = system: α7 integrin (LacZ reporter in α7+/LacZ myotubes); test: Myotube α7 integrin FDG assay (Burkin assay in myotubes, 96-well); details: myotubes
[3] = system: β-galactosidase in CMV-LacZ C2C12 myotubes; test: CMV-LacZ secondary screen in C2C12 myotubes (β-Gal stabilizing assay); details: C2C12 CMV-LacZ myotubes, fold relative to DMSO
Procedure, shortened: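 Dose-response runs at 0.5–40 μM (0.5, 1, 5, 10, 20, 40 μM; N=2 per point) used a clonal C2C12 line carrying CMV-LacZ. Cells were assayed as myoblasts or as differentiated myotubes, and β-galactosidase levels were read with the FDG fluorogenic substrate.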

[4] = system: β-galactosidase in CMV-LacZ C2C12 myoblasts; test: CMV-LacZ secondary screen in C2C12 myoblasts (β-Gal stabilizing assay); details: CMV-LacZ C2C12 myoblasts
Procedure, shortened: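 C2C12 myoblasts stably carrying a linearized CMV-driven LacZ construct, clone chosen by β-gal level in the myoblast FDG assay. Compounds tested in 96-well dose-response at 0.5, 1, 5, 10, 20 and 40 μM, N=2 replicates per point, to detect β-gal stabilization.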

| SMILES | Burkin Assay in Myoblasts, signal relative to DMSO ([1]; 0.5 uM) | Burkin Assay in Myoblasts, signal relative to DMSO ([1]; 1 uM) | Burkin Assay in Myoblasts, signal relative to DMSO ([1]; 5 uM) | Burkin Assay in Myoblasts, signal relative to DMSO ([1]; 10 uM) | Burkin Assay in Myoblasts, signal relative to DMSO ([1]; 20 uM) | Burkin Assay in Myoblasts, signal relative to DMSO ([1]; 40 uM) | Burkin Assay in Myotubes, α7 integrin LacZ reporter signal relative to DMSO ([2]; 0.5 uM) | Burkin Assay in Myotubes, α7 integrin LacZ reporter signal relative to DMSO ([2]; 1 uM) | Burkin Assay in Myotubes, α7 integrin LacZ reporter signal relative to DMSO ([2]; 5 uM) | Burkin Assay in Myotubes, α7 integrin LacZ reporter signal relative to DMSO ([2]; 10 uM) | Burkin Assay in Myotubes, α7 integrin LacZ reporter signal relative to DMSO ([2]; 20 uM) | Burkin Assay in Myotubes, α7 integrin LacZ reporter signal relative to DMSO ([2]; 40 uM) | CMV-LACZ in Myotubes, signal relative to DMSO ([3]; 0.5 uM) | CMV-LACZ in Myotubes, signal relative to DMSO ([3]; 1 uM) | CMV-LACZ in Myotubes, signal relative to DMSO ([3]; 5 uM) | CMV-LACZ in Myotubes, signal relative to DMSO ([3]; 10 uM) | CMV-LACZ in Myotubes, signal relative to DMSO ([3]; 20 uM) | CMV-LACZ in Myotubes, signal relative to DMSO ([3]; 40 uM) | CMV-LACZ in Myoblasts (β-galactosidase activity relative to DMSO) ([4]; 0.5 uM) | CMV-LACZ in Myoblasts (β-galactosidase activity relative to DMSO) ([4]; 1 uM) | other results |
| --- | --- | --- | --- | --- | --- | --- | --- | --- | --- | --- | --- | --- | --- | --- | --- | --- | --- | --- | --- | --- | --- |
| O=CN1CCN(C(=O)CC(c2ccccc2)c2cc(Br)ccc2O)CC1 (stereo not drawn) [MLS001000874-01] | 1.175 | 1.033 | 1.077 | 0.8677 | 1.007 | 0.9545 | 0.9357 | 0.8646 | 1.0731 | 0.9216 | 0.9266 | 0.8181 | 1.0943 | 1.1590 | 1.1124 | 0.9960 | 1.1484 | 1.0947 | 1.1029 | 1.0442 | CMV-LACZ in Myoblasts (β-galactosidase activity relative to DMSO) ([4]; 5 uM): 0.8886; CMV-LACZ in Myoblasts (β-galactosidase activity relative to DMSO) ([4]; 10 uM): 1.0295; CMV-LACZ in Myoblasts (β-galactosidase activity relative to DMSO) ([4]; 20 uM): 1.0556; CMV-LACZ in Myoblasts (β-galactosidase activity relative to DMSO) ([4]; 40 uM): 1.1100 |
| O=C(CCc1ccccc1)c1nnc(-c2ccccc2)o1 [MLS001004364-01] | 1.0917 | 1.105 | 1.035 | 0.9531 | 0.9729 | 0.9374 | 1.093 | 1.105 | 0.9047 | 0.8617 | 0.8875 | 1.055 | 0.9210 | 1.0095 | 0.8978 | 0.9480 | 1.2824 | 1.1824 | 0.9117 | 1.0643 | CMV-LACZ in Myoblasts (β-galactosidase activity relative to DMSO) ([4]; 5 uM): 1.0438; CMV-LACZ in Myoblasts (β-galactosidase activity relative to DMSO) ([4]; 10 uM): 0.9011; CMV-LACZ in Myoblasts (β-galactosidase activity relative to DMSO) ([4]; 20 uM): 1.0263; CMV-LACZ in Myoblasts (β-galactosidase activity relative to DMSO) ([4]; 40 uM): 1.0441 |

— patent US9980943B2, “Methods of treating muscular dystrophy” (BOARD OF REGENTS OF THE NEVADA SYSTEM OF HIGHER EDUCATION, …, priority 2013, dated 2018)
